The record followed here is PMC10498667 (Chemical Science, 2023).

Values joined by “and” are separate entries in the source; they are usually repeats but may differ in a detail not shown here. Equal values may be shown once. Read-outs that look alike come from different tables or passages of the source.

Assay [1] concerns the target T1, Electric eel acetylcholinesterase (eeAChE) (Electrophorus electricus, UniProt O42275).
T1 construct: purchased Invitrogen (AChE assay kit)
Kind of assay: Fluorometric AChE activity assay. Type of assay: biochemical. From the text: Inhibiting the activity of AChE can maintain a proper level of ACh under dysregulated cholinergic conditions.[10,11] Thus, the inhibitory capability of flavonoids against AChE was investigated by a previously reported fluorescent AChE assay with slight modifications.[60] […] The inclusion of three hydroxyl groups on the A ring is critical for controlling the catalytic activity of AChE, as previously reported,[49] whereas the incorporation of a chloro substituent, with three hydroxyl groups, and methoxy moieties instead of hydroxyl groups on the A ring can decrease such inhibitory activity. Flavonoids 2, 3, and 1b over 1 illustrates the importance of the position of hydroxyl groups on the A ring and the isoflavone variation in directing the flavonoids' ability to inhibit the activity of AChE. […]
All experiments were performed in triplicate.
AChE Activity Assay. The AChE inhibitory activity of flavonoids was measured by a fluorometric AChE assay kit (Invitrogen) following the manufacturer ’s protocol with slight modifications.
Electric eel acetylcholinesterase (eeAChE) was dissolved and diluted with a working solution. The eeAChE solution (50 µL) was added into a 96-well plate. Various concentrations of flavonoids were then introduced into the 96-well plate. The final concentrations of flavonoids were as follow: […]
µM). After shaking, the mixture of eeAChE and flavonoids was pre-incubated for 15 min. A reaction mixture containing acetylcholine, an AChE probe, and AbRedTM was added into the 96-well plate to initiate the reaction. The AChE activity was calculated based on the fluorescence intensity (lex/lem = 571/585 nm) of the wells that was detected after 15 min incubation. Data were normalized to the control (no inhibitor). All experiments were performed in triplicate. […]
For the disaggregation studies, Ab (25 µM) was incubated with and without CuCl2 or ZnCl2 (25 µM) for 24 h at 37 °C with constant agitation to generate preformed Ab aggregates. The resultant Ab aggregates were then treated with flavonoids (50 µM) and incubated for additional 24 h with constant agitation. For the additional disaggregation experiments, preformed Ab42 aggregates (25 µM) or Ab42 seeds (10% v/v) with or without metal ions (25 µM for CuCl2 and ZnCl2) were incubated with flavonoids (50 µM) for 24 h with constant agitation. The resultant Ab aggregates were then treated with freshly prepared Ab42

Assay [2] addresses T2, metal-free Aβ42 (Homo sapiens, UniProt P05067).
T2 construct: purchased Peptide Institute, Inc. (Osaka, Japan)
Nature of the assay: CD spectroscopy of metal-free Aβ42 (BeStSel). As to conditions: Aβ42 100 μM; flavonoid 200 μM; 37 °C; 24 h. How it is done: CD Spectroscopy. Metal-free Ab42 (100 µM) was incubated with and without 5, 4b, and 6 (200 µM) for 24 h in 20 mM HEPES, pH 7.4, 150 mM NaF at 37 °C with constant agitation (250 rpm).
CD spectra were collected in the range from 195 nm to 255 nm. The digital integration time, the bandwidth, and the scanning speed were 4 s, 2 nm, and 20 nm/min, respectively. Each spectrum was smoothed by Fourier transforms. The change in the secondary structure of metal-free Ab42 […]
treated with a flavonoid was analyzed following the previously reported BeStSel method.25 The measurements were conducted in triplicate. […]
mM HEPES, pH 7.4, 150 mM NaCl) with or without Ab40 (25 µM) in the absence and presence of CuCl2 or ZnCl2 (25 µM). Abs spectra of the samples were collected for 24 h at 37 °C.
6c [3-(3,4-Dihydroxyphenyl)-5,6,7-trimethoxy-4H-chromen-4-one]. […] After 4 h, the reaction mixture was extracted in a solution of ethyl acetate (EtOAc) and saturated sodium acetate (NaOAc; 0.12 g/mL). The organic layer was collected, washed with brine, dried with sodium sulfate ([…]), filtered, and concentrated. The crude product was purified by column chromatography (SiO2; EtOAc:hexanes = 1:1) to yield 6c [Rf = 0.3; yellow powder; 650 mg, 2.0 mmol (yield = 31%)] that was used for the next step without further purification. 1H NMR [400 MHz, […]

In assay [3] the test system is preformed Aβ42 and Aβ40 aggregates. Nature of the assay: Disaggregation experiments with preformed Aβ aggregates. The assay is classed as biochemical. The following applies: Aβ42 and Aβ40, with and without Cu(II), Zn(II); flavonoid 50 μM; 24 h. As for the experimental part: To verify whether a series of nine flavonoids can modulate the aggregation of Aβ with and without metal ions, the molecular weight (MW) distribution and morphology of the resultant Aβ species were determined by gel electrophoresis with western blotting (gel/western blot) using an anti-Aβ antibody (6E10) and transmission electron microscopy (TEM), respectively. Two types of experiments were carried out employing two major Aβ isoforms, i.e., Aβ42 and Aβ40:[25] (i) inhibition studies to identify the effect of 1–5, 1a, 1b, 4a, and 4b on the formation of Aβ aggregates; (ii) disaggregation studies to evaluate if the flavonoids with reactivities towards Aβ aggregation in inhibition studies can disassemble preformed Aβ aggregates or modulate their further aggregation, as illustrated in Fig. 4 and S5–S9. ^† Moreover, the solutions containing the flavonoids and Cu(II) were probed by electronic absorption (Abs) spectroscopy to monitor their metal binding. […] As expected, no Abs change of 1a and 4a composed of methoxy groups on the A ring was detected by addition of Cu(II). […]
Ab Aggregation Experiments. Ab was dissolved in ammonium hydroxide [1% w/w NH4OH (aq)] and the resulting solution was aliquoted, lyophilized overnight, and stored at –80 °C. A stock solution of Ab was then prepared by dissolving the lyophilized peptide with NH4OH (1% w/w, aq; 10 µL) and diluting with ddH2O. All Ab samples were prepared following previously reported procedures.21,22 The concentration of the peptide solution was determined by measuring its […]
solution (20 mM HEPES, pH 7.4, 150 mM NaCl) was used for preparing Ab samples. For the inhibition studies, flavonoids (final concentration, 50 µM; 1% v/v DMSO) were added to the samples of Ab (25 µM) in the absence and presence of CuCl2 or ZnCl2 (25 µM) followed by incubation for 24 h at 37 °C with constant agitation. For the disaggregation studies, Ab (25 µM) was incubated with and without CuCl2 or ZnCl2 (25 µM) for 24 h at 37 °C with constant agitation to generate preformed Ab aggregates. The resultant Ab aggregates were then treated with flavonoids (50 µM) and incubated for additional 24 h with constant agitation. […]

[4] abbreviates: fluorometric assay, eeAChE, read-out: IC50 for AChE inhibition.

T2 sequence (P05067 672-713 limits assumed): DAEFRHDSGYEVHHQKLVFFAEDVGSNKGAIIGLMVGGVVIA
T1 sequence (O42275 24-633): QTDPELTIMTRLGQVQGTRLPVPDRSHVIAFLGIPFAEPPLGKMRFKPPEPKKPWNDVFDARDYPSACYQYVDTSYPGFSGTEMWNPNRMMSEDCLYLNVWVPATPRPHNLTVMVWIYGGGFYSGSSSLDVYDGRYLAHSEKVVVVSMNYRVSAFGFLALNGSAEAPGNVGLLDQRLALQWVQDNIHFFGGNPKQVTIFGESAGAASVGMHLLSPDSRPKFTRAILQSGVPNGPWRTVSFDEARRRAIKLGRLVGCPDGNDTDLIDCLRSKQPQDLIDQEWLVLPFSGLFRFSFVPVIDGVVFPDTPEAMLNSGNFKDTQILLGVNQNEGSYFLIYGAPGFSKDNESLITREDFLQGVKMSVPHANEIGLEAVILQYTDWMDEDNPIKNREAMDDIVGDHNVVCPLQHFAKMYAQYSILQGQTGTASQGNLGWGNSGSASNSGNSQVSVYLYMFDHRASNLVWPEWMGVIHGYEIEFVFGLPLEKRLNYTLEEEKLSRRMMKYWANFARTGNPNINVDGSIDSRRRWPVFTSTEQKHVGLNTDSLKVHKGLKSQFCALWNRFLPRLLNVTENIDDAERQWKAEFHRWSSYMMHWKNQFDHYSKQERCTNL

For `O=c1c(-c2ccccc2)coc2cc(O)c(O)c(O)c12` [4b, 5,6,7-trihydroxyisoflavone], the IC50 in assay [1] (setting [4]) came out at 1.4 µM. Also, in assay [2], the “Random Coils (%) of metal-free Aβ42” value was 53.8% and 53.8 (±5.9) %; the “Turn (%) of metal-free Aβ42” value turned out to be 10.3%; the “α-Helix (%) of metal-free Aβ42” value worked out at 0.4%; the “β-Sheet (%) of metal-free Aβ42” value was 35.5% and 35.5 (±5.7) %. Further, in assay [3], the “effect on preformed metal-free Aβ and metal–Aβ aggregates” value was “could disassemble preformed metal-free Aβ and metal–Aβ aggregates”.
As to `O=c1cc(-c2ccccc2)oc2cc(O)cc(O)c12` [compound 1, chrysin], the “inhibitory activity against AChE (IC50 could not be obtained)” value in assay [1] (fluorometric assay, eeAChE) was “negligible inhibitory activity”. The “effect on preformed metal-free Aβ and metal–Aβ aggregates” value in assay [3] was “less noticeably affected”.
The compound `O=c1cc(-c2ccccc2)oc2cc(O)c(O)cc12` [compound 2, 6,7-dihydroxyflavone] displayed a 50% inhibitory concentration (IC50) in assay [1] of 4.18 µM. Moreover, in assay [3], the “effect on preformed metal-free Aβ and metal–Aβ aggregates” value is reported as “less noticeably affected”.
As to `O=c1cc(-c2ccccc2)oc2ccc(O)c(O)c12` [compound 3, 5,6-dihydroxyflavone], the 50% inhibitory concentration (IC50) in assay [1] (setting [4]) is 4.51 µM. Besides, the “effect on preformed metal-free Aβ and metal–Aβ aggregates” value in assay [3] is “the reactivity was shown only in the presence of metal ions”.
As for `O=c1cc(-c2ccccc2)oc2cc(O)c(O)c(O)c12` [compound 4, baicalein], half-maximal inhibition in assay [1] (IC50) required 1.95 µM. Moreover, the “effect on preformed metal-free Aβ and metal–Aβ aggregates” value in assay [3] was “could disassemble preformed metal-free Aβ and metal–Aβ aggregates”.
In the case of `O=c1cc(-c2ccccc2)oc2c(Cl)c(O)c(O)c(O)c12` [compound 5, 8-chlorobaicalein], the IC50 in assay [1] (setting [4]) is 12.3 µM. Besides, in assay [2], the “Random Coils (%) of metal-free Aβ42” value was 19.7% and 19.7 (±15.5) %; the “Turn (%) of metal-free Aβ42” value is 12.5%; the “α-Helix (%) of metal-free Aβ42” value is reported as 1.2%; the “β-Sheet (%) of metal-free Aβ42” value was 66.7% and 66.7 (±15.3) %. Further, in assay [3], the “effect on preformed metal-free Aβ and metal–Aβ aggregates” value was “could disassemble preformed metal-free Aβ and metal–Aβ aggregates”.
As to `O=c1c(-c2ccc(O)c(O)c2)coc2cc(O)c(O)c(O)c12` [compound 6, 3-(3,4-dihydroxyphenyl)-5,6,7-trihydroxy-4H-chromen-4-one], the half-maximal inhibitory concentration (IC50) in assay [1] (setting [4]) turned out to be 0.19 µM. In assay [2], the “Random Coils (%) of metal-free Aβ42” value worked out at 13.6%, the “Turn (%) of metal-free Aβ42” value is 38.1%, the “α-Helix (%) of metal-free Aβ42” value is 1.5% and the “β-Sheet (%) of metal-free Aβ42” value came to 46.7%. In assay [3], the “effect on preformed metal-free Aβ and metal–Aβ aggregates” value is “affected their corresponding preformed Aβ aggregates and seeds”.
